According to ChEMBL document CHEMBL4507305, “Data for DCP probe TP-024” (2021):

Assays:
[1] = target: Serine/threonine-protein kinase SIK3 (Homo sapiens) (UniProt Q9Y2K2); settings: Compound concentration 1000.0 nM
[2] = target: cAMP-dependent protein kinase catalytic subunit alpha (Homo sapiens) (UniProt P17612); settings: Compound concentration 1000.0 nM
[3] = tested on: Tyrosine-protein kinase ABL1 (Homo sapiens), P00519 [Q252H]; settings: Compound concentration 1000.0 nM
[4] = target: Atypical kinase COQ8B, mitochondrial (Homo sapiens) (UniProt Q96D53); settings: Compound concentration 1000.0 nM
[5] = target: Ankyrin repeat and protein kinase domain-containing protein 1 (Homo sapiens) (UniProt Q8NFD2); settings: Compound concentration 1000.0 nM
[6] = target: Serine/threonine-protein kinase Chk1 (Homo sapiens) (UniProt O14757); settings: Compound concentration 1000.0 nM
[7] = target: Phosphatidylinositol 3-kinase catalytic subunit type 3 (Homo sapiens) (UniProt Q8NEB9); settings: Compound concentration 1000.0 nM
Sequence of Phosphatidylinositol 3-kinase catalytic subunit type 3 (Homo sapiens) (Q8NEB9 whole entry): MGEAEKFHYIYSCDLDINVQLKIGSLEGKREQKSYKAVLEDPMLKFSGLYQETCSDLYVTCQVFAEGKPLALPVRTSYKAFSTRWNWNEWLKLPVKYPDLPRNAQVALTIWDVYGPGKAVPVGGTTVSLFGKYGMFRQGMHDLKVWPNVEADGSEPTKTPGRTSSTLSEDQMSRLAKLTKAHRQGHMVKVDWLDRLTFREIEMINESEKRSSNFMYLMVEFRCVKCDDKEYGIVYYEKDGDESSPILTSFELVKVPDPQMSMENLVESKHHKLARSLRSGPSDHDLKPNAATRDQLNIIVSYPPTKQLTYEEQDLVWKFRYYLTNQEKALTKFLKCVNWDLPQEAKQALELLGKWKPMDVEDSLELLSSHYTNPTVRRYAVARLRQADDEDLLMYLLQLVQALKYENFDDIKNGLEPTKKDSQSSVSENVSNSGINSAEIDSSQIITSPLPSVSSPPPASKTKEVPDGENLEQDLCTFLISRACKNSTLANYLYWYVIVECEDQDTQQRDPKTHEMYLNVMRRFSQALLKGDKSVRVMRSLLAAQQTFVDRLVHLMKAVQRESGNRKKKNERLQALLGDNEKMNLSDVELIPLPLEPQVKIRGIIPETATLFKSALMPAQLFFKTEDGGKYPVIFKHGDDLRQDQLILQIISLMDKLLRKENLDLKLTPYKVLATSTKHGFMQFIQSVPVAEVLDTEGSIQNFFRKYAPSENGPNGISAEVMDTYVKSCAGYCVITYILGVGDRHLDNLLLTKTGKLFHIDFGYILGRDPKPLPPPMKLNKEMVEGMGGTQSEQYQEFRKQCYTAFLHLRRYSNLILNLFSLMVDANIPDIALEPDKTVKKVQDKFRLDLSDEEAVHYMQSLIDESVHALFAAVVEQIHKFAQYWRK

[8] = tested on: Mast/stem cell growth factor receptor Kit (Homo sapiens), P10721 [V559D]; settings: Compound concentration 1000.0 nM
[9] = target: Cyclin-dependent kinase-like 2 (Homo sapiens) (UniProt Q92772); settings: Compound concentration 1000.0 nM
Sequence of Cyclin-dependent kinase-like 2 (Homo sapiens) (Q92772 whole entry): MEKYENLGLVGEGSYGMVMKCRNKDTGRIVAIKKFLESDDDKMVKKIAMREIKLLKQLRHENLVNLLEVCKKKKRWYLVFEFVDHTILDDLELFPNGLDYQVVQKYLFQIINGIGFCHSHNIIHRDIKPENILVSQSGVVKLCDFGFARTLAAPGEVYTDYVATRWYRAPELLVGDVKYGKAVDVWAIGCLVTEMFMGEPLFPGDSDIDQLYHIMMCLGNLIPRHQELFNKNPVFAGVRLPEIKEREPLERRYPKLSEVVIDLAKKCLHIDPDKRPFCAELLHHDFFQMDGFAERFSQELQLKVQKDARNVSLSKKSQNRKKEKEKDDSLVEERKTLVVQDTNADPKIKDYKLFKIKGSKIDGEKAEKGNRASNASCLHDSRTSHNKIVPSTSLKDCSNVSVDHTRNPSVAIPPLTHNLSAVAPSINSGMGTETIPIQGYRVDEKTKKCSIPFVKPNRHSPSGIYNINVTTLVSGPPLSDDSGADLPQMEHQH

[10] = target: Serine/threonine-protein kinase MRCK beta (Homo sapiens) (UniProt Q9Y5S2); settings: Compound concentration 1000.0 nM
[11] = target: Tyrosine-protein kinase Fes/Fps (Homo sapiens) (UniProt P07332); settings: Compound concentration 1000.0 nM
[12] = target: ALK tyrosine kinase receptor (Homo sapiens) (UniProt Q9UM73); settings: Compound concentration 1000.0 nM
Sequence of ALK tyrosine kinase receptor (Homo sapiens) (Q9UM73 19-1620 limits assumed): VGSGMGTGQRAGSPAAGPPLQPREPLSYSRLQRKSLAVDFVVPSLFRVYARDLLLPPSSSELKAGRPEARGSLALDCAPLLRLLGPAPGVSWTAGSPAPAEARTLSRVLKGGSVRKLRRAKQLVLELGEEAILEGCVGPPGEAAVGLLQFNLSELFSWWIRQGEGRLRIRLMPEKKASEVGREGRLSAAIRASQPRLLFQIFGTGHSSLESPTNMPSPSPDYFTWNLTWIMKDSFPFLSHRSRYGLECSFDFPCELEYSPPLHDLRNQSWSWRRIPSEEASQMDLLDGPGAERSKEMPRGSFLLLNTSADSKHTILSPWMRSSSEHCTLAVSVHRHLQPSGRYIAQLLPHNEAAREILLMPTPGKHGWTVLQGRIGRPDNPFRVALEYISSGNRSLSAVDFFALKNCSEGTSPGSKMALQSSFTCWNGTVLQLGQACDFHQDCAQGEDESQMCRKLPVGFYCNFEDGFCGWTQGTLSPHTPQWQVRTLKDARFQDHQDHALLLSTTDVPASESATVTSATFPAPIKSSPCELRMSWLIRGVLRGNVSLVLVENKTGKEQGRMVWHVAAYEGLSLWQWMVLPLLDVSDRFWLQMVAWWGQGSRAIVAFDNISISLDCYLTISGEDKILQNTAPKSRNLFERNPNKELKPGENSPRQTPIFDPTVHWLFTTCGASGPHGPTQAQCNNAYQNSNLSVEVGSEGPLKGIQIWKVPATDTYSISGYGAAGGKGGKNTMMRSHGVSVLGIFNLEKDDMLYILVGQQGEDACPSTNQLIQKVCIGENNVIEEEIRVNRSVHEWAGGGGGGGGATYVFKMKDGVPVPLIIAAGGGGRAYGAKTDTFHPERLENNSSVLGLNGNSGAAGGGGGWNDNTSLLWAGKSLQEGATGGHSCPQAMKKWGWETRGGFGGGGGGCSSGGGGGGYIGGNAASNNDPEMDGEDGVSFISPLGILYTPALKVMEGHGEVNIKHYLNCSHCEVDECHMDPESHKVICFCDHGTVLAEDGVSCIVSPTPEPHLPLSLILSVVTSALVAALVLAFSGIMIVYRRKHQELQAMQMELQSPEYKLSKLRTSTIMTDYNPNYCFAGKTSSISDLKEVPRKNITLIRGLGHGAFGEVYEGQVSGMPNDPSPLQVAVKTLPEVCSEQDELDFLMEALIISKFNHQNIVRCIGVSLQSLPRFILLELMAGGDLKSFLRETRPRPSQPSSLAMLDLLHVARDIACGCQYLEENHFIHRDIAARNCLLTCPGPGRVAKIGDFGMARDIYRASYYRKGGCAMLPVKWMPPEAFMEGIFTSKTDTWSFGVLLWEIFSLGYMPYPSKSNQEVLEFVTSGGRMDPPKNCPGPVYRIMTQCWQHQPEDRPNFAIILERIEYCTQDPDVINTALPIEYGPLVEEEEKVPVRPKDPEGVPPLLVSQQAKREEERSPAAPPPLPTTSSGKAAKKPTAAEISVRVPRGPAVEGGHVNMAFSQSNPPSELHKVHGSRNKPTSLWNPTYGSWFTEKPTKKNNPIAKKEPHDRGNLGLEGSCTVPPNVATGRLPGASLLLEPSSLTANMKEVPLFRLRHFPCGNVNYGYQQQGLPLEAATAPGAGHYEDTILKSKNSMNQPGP

[13] = target: Tyrosine-protein kinase JAK1 (Homo sapiens) (UniProt P23458); settings: Compound concentration 1000.0 nM
[14] = target: Cytoplasmic tyrosine-protein kinase BMX (Homo sapiens) (UniProt P51813); settings: Compound concentration 1000.0 nM
Sequence of Cytoplasmic tyrosine-protein kinase BMX (Homo sapiens) (P51813 whole entry): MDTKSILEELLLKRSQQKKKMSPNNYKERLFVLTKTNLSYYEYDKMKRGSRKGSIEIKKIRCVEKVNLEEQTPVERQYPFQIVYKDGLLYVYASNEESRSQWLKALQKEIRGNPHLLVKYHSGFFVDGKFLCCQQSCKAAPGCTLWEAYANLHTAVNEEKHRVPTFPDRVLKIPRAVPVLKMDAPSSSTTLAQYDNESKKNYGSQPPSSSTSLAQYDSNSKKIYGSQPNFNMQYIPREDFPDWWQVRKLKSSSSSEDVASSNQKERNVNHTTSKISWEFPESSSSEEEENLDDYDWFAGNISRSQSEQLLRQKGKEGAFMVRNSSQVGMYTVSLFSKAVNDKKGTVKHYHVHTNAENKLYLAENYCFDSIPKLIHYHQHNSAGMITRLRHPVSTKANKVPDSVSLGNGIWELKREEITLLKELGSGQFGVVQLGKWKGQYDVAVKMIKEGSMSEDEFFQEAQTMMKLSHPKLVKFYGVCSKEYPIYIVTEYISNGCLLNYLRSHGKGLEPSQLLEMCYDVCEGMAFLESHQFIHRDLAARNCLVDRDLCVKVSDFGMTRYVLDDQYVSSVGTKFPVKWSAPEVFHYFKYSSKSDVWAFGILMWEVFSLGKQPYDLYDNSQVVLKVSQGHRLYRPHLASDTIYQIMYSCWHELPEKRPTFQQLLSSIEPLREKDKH

[15] = tested on: ALK tyrosine kinase receptor (Homo sapiens), Q9UM73 [C1156Y]; settings: Compound concentration 1000.0 nM
[16] = target: Cyclin-dependent kinase 16 (Homo sapiens) (UniProt Q00536); settings: Compound concentration 1000.0 nM
[17] = target: Casein kinase I isoform gamma-3 (Homo sapiens) (UniProt Q9Y6M4); settings: Compound concentration 1000.0 nM
[18] = tested on: Receptor-type tyrosine-protein kinase FLT3 (Homo sapiens), P36888 [D835H]; settings: Compound concentration 1000.0 nM
[19] = target: Dual specificity protein kinase CLK4 (Homo sapiens) (UniProt Q9HAZ1); settings: Compound concentration 1000.0 nM
[20] = target: Ephrin type-B receptor 2 (Homo sapiens) (UniProt P29323); settings: Compound concentration 1000.0 nM
[21] = target: Serine/threonine-protein kinase 36 (Homo sapiens) (UniProt Q9NRP7); settings: Compound concentration 1000.0 nM
[22] = target: Cyclin-dependent kinase 3 (Homo sapiens) (UniProt Q00526); settings: Compound concentration 1000.0 nM
[23] = target: Cyclin-dependent kinase 19 (Homo sapiens) (UniProt Q9BWU1); settings: Compound concentration 1000.0 nM
[24] = target: cAMP-dependent protein kinase catalytic subunit beta (Homo sapiens) (UniProt P22694); settings: Compound concentration 1000.0 nM
[25] = target: Ribosomal protein S6 kinase alpha-2 (Homo sapiens) (UniProt Q15349); settings: Compound concentration 1000.0 nM
[26] = tested on: ALK tyrosine kinase receptor (Homo sapiens), Q9UM73 [L1196M]; settings: Compound concentration 1000.0 nM
[27] = target: Bone morphogenetic protein receptor type-1B (Homo sapiens) (UniProt O00238); settings: Compound concentration 1000.0 nM
[28] = target: D(4) dopamine receptor (Homo sapiens) (UniProt P21917); settings: Compound concentration 10.0 uM
[29] = target: GABA-A receptor; anion channel (Rattus norvegicus) (UniProt O09028+P15431+P18506+P18508+P19969+P20236+P23574+P23576+P28471+P28473+P30191+P62813+P63079+P63138+Q91ZM7+Q9ES14); settings: Compound concentration 10.0 uM
[30] = target: Serine/threonine-protein kinase SBK1 (Homo sapiens) (UniProt Q52WX2); settings: Compound concentration 1000.0 nM
[31] = target: Ephrin type-A receptor 5 (Homo sapiens) (UniProt P54756); settings: Compound concentration 1000.0 nM
[32] = target: Calcium/calmodulin-dependent protein kinase type 1D (Homo sapiens) (UniProt Q8IU85); settings: Compound concentration 1000.0 nM
[33] = target: Maternal embryonic leucine zipper kinase (Homo sapiens) (UniProt Q14680); settings: Compound concentration 1000.0 nM
[34] = target: Cyclin-dependent kinase 17 (Homo sapiens) (UniProt Q00537); settings: Compound concentration 1000.0 nM
[35] = target: Calcium/calmodulin-dependent protein kinase kinase 2 (Homo sapiens) (UniProt Q96RR4); settings: Compound concentration 1000.0 nM
[36] = target: Beta-1 adrenergic receptor (Homo sapiens) (UniProt P08588); settings: Compound concentration 10.0 uM
[37] = target: Ephrin type-A receptor 1 (Homo sapiens) (UniProt P21709); settings: Compound concentration 1000.0 nM
[38] = target: Serine/threonine-protein kinase Sgk2 (Homo sapiens) (UniProt Q9HBY8); settings: Compound concentration 1000.0 nM
Sequence of Serine/threonine-protein kinase Sgk2 (Homo sapiens) (Q9HBY8 whole entry): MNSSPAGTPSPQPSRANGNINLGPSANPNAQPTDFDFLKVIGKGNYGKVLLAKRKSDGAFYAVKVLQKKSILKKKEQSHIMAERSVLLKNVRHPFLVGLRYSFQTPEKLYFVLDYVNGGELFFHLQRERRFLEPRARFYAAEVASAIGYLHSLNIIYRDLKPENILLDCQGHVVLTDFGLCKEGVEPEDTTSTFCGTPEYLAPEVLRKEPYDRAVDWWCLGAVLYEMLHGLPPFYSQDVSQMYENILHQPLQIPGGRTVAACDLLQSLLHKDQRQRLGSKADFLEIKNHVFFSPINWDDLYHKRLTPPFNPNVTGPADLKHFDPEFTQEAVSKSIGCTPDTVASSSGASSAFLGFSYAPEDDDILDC

[39] = target: Mu-type opioid receptor (Homo sapiens) (UniProt P35372); settings: Compound concentration 10.0 uM
[40] = target: 5-hydroxytryptamine receptor 5A (Homo sapiens) (UniProt P47898); settings: Compound concentration 10.0 uM
[41] = target: Interleukin-1 receptor-associated kinase 3 (Homo sapiens) (UniProt Q9Y616); settings: Compound concentration 1000.0 nM
[42] = target: Serine/threonine-protein kinase TNNI3K (Homo sapiens) (UniProt Q59H18); settings: Compound concentration 1000.0 nM
Sequence of Serine/threonine-protein kinase TNNI3K (Homo sapiens) (Q59H18 whole entry): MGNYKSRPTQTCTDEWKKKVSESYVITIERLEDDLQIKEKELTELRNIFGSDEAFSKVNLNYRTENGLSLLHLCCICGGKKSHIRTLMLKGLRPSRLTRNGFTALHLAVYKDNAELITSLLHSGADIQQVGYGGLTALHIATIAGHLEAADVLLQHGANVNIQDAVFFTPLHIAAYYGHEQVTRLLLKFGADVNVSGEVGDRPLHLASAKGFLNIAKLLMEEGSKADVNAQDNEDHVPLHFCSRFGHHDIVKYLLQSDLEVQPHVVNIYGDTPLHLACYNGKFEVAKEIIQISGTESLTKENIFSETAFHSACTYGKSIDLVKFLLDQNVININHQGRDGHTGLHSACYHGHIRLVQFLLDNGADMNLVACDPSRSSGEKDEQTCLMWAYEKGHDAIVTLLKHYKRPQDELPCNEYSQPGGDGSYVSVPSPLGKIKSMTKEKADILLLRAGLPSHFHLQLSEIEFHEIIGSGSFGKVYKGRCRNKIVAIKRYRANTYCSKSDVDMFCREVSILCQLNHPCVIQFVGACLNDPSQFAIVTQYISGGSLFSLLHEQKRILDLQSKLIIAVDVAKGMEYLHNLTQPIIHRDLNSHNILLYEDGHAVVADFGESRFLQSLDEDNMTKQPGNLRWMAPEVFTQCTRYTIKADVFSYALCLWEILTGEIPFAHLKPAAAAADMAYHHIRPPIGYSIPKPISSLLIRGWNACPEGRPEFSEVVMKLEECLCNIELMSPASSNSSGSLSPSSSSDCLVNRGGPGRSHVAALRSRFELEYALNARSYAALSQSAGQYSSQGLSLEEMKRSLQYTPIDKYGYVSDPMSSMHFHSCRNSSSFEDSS

[43] = target: Serine/threonine-protein kinase BRSK2 (Homo sapiens) (UniProt Q8IWQ3); settings: Compound concentration 1000.0 nM
[44] = target: Hepatocyte growth factor receptor (Homo sapiens) (UniProt P08581); settings: Compound concentration 1000.0 nM

Cc1nc(Cc2cccc(C(F)(F)F)c2)sc1-c1ccc(C(N)=O)nc1 [TP-024n]
residual activity [1]: 75% | residual activity [2]: 75% | residual activity [3]: 87% | residual activity [4]: 100% | residual activity [5]: 95% | residual activity [6]: 100% | residual activity [7]: 100% | residual activity [8]: 100% | residual activity [9]: 92% | residual activity [10]: 39% | residual activity [11]: 99% | residual activity [12]: 99% | residual activity [13]: 92% | residual activity [14]: 59% | residual activity [15]: 68% | residual activity [16]: 100% | residual activity [17]: 93% | residual activity [18]: 100% | residual activity [19]: 83% | residual activity [20]: 86% | residual activity [21]: 100% | residual activity [22]: 88% | residual activity [23]: 98% | residual activity [24]: 92% | residual activity [25]: 95% | residual activity [26]: 100% | residual activity [27]: 94% | inhibition [28]: -2.16% | inhibition [29]: 14.8% | residual activity [30]: 100% | residual activity [31]: 100% | residual activity [32]: 94% | residual activity [33]: 100% | residual activity [34]: 83% | residual activity [35]: 91% | inhibition [36]: 7.56% | residual activity [37]: 81% | residual activity [38]: 95% | inhibition [39]: 5.75% | inhibition [40]: 3.99% | residual activity [41]: 100% | residual activity [42]: 100% | residual activity [43]: 72% | residual activity [44]: 63%

Cc1cc(-n2nc(Cc3cc(F)cc(C(F)(F)F)c3)nc2C)ccc1C(N)=O [TP-024]
residual activity [1]: 83% | residual activity [2]: 100% | residual activity [3]: 94% | residual activity [4]: 100% | residual activity [5]: 100% | residual activity [6]: 100% | residual activity [7]: 100% | residual activity [8]: 83% | residual activity [9]: 100% | residual activity [10]: 100% | residual activity [11]: 100% | residual activity [12]: 100% | residual activity [13]: 100% | residual activity [14]: 100% | residual activity [15]: 100% | residual activity [16]: 100% | residual activity [17]: 95% | residual activity [18]: 100% | residual activity [19]: 96% | residual activity [20]: 100% | residual activity [21]: 100% | residual activity [22]: 100% | residual activity [23]: 88% | residual activity [24]: 100% | residual activity [25]: 100% | residual activity [26]: 100% | residual activity [27]: 100% | inhibition [28]: -2.09% | inhibition [29]: 12.8% | residual activity [30]: 98% | residual activity [31]: 100% | residual activity [32]: 96% | residual activity [33]: 100% | residual activity [34]: 77% | residual activity [35]: 100% | inhibition [36]: 11.8% | residual activity [37]: 100% | residual activity [38]: 100% | inhibition [39]: 0.37% | inhibition [40]: 7.99% | residual activity [41]: 100% | residual activity [42]: 100% | residual activity [43]: 77% | residual activity [44]: 81%
